# Source: publication PMC9769880, “Diverse Sensory Repertoire of Paralogous Chemoreceptors Tlp2, Tlp3, and Tlp4 in Campylobacter jejuni” (Microbiology Spectrum, 2022)
# Like-named read-outs stand apart in the source and are kept apart here.
# What was measured:
# [1] = molecular target: T1, Tlp2 (Campylobacter jejuni, UniProt Q0PBZ3); test: biochemical; assay type: binding; settings: read-out: Tlp2 Affinity
# Method: (§1) His-tagged proteins (Tlp2, -3, and -4) were prepared as previously described ([11]) DNA segments encoding the periplasmic sensory domains (33 to 286 amino acids) of Tlp2 and (38 to 297 amino acids) of Tlp4 were amplified (see Table S7), ligated into pGEM-T Easy (Promega) and subcloned into pET-19b (Novagen) (see Table S6). Recombinant proteins were expressed in E. coli BL21(DE3) using 1 mM IPTG (isopropyl-β-D-thiogalactopyranoside) and purified using His-select-nickel chromatography as described previously ([8], [11]). The purity of the proteins was confirmed by SDS-PAGE and Western blot analysis with anti-His antibodies (Bio-Rad). Protein concentrations were determined using a NanoDrop spectrophotometer (Thermo Fisher).
# (§2) Surface plasmon resonance (SPR) experiments were performed as described previously ([10], [11]) with the following modifications. Briefly, purified proteins were diluted to 0.15 μM in sodium acetate (pH 4.0) and immobilized onto an active flow cell of a CM5 sensor chip with a flow rate of 5 μL/min for 7 min of contact time using a standard amine coupling protocol. Immobilized protein levels for all three proteins ranged from 6028.3 to 9779.3 response units (RU) providing a minimum expected response maximum (RMax) between 20 and 50 RU for the small molecules tested. […] All ligands were prepared in PBS (pH 7.2) and serially diluted from 0.2 to 0.0125 mM. A 10-min dissociation period was allocated after the introduction of each analyte. SPR experiments were performed in single-cycle kinetics mode using the BIAcore S200 biosensor system (Cytiva) at 25°C in PBS (pH 7.2) at a flow rate of 30 μL/min. The equilibrium dissociation constant (KD) for each analyte was determined using BIAcore S200 Evaluation software with a report point 4 s after the injection stop to account for the bulk transfer of the small molecule against a large amount of immobilized protein (as shown in Fig. S5).
# [2] = molecular target: T2, Tlp4 (Campylobacter jejuni, UniProt Q0PBP3); test: biochemical; assay type: binding; settings: read-out: Tlp4 Affinity
# Method: as §1, §2
# [3] = molecular target: T1, Tlp2; assay type: binding; settings: yes/no binding
# Method: (§3) Glycan (>400 monosaccharides or complex glycans) and small molecule arrays containing amino acids and salts were performed as described previously by Day et al. ([67]). Briefly, 1 μg of purified recombinant protein was complexed with anti-His antibody (Cell Signaling Technology) and rabbit anti-mouse/goat anti-rabbit Alexa 555-IgG (Thermo Scientific) at a molar ratio of 1:0.5:0.25 and then incubated on the array for […] in phosphate-buffered saline (PBS). The array slides were scanned at 488/520 nm and analyzed using InnoScan 1100 with MAPIX software. All arrays were performed in triplicate with a total of 12 data points for each glycan tested; the complete data set and MIRAGE (i.e., minimum information regarding a glycomics experiment) results are shown in Tables S3 and S8.
# (§4) Table S8 - Supplementary glycan microarray document based on M IRAGE guidelines. D O I:
# (§5) Classification Guidelines
# (§6) 1. Sample: Glycan Binding Sample
# (§7) Origin: Helicobacter pylori SS1; produced as a recombinant His - tagged protein in E.
# (§8) The preparation of Tlp2,3, and 4 is explained in the Materials and Methods section:
# (§9) Expression and purification of the periplasmic domain of Tlp2,3, and 4.
# (§10) Sample Sample is a His Tagged protein containing only the periplasmic receptor domain of the modifications full length Tlp2,3, and 4transmembrane protein.
# (§11) Please see Materials and Methods: Tlps 2/3/4 bind to a range of ligands, including […]
# (§12) Proteins were complexed with mouse anti- his antibody, with secondary and tertiary AlexaFluor555 antibodies (rabbit anti-mouse, goat anti-rabbit) at a molar ratio of 4:2:1.
# (§13) The protein/antibody complex was incubated on ice for 10 mins prior to placing on the Assay protocol array. Arrays were performed with 1 µg of complexed protein incubated on the array for 20 min. Arrays were then washed 3 times in Array PBS (PBS + 2mM MgCl2 + 2mM CaCl2) then dried by centrifugation for 3 min at 300 x g . Scanning was performed us ing an Innopsys InnoScan 1100AL and analyzed using Mapix (Innopsys). Yes/no binding was determined by six positive replicate spots in three replicate experiments. Positive […]
# (§14) Glycan Glycans in this study are listed in Table S2 and is a published library in doi:
# (§15) Glycans were prepared in one of two ways for printing:
# (§16) Glycan 1. Glycans (with IDs in number/letter format; e.g. 1A, 4C, 7K) were sourced modifications commercially from Dextra Laboratories, Elicityl and Carbosythn and were made into glycoamines using the protocol published in Day et al 2009 (doi:
# (§17) Glycan arrays: We only use glycan arrays as a yes/no binding tool. Due to this we look only at binding that is unambiguously above background vs lack of binding above background. Average background + 3x standard deviation of the background of 20 sets of 4 spots of DMF:DMSO only spots is applied to determine if binding observed is […]
# (§18) Only spots with values equal to or greater than this value were considered as binding from data of any tested slide. These values are slide […]
# (§19) Data Small molecule arrays: We only use amino acid arrays as a yes/no binding tool. Due interpretation to this we look only at binding that is unambiguously above background vs lack of binding above background. Average background + 3x standard deviation of the background of 6 spots of PBS + 2% glycerol only spots is applied to determine if […]
# (§20) Only spots with values equal to or greater than this value were considered as binding from data of any tested slide. These values are slide dependent. […]
# [4] = molecular target: T2, Tlp4; assay type: binding; settings: yes/no binding
# Method: as §3, §4, §5, §6, §7, §8, §9, §10, §11, §12, §13, §14, §15, §16, §17, §18, §19, §20
# [5] = molecular target: T3, Tlp3 (Campylobacter jejuni, UniProt Q0P864); test: Glycan/small molecule arrays with Tlp3; settings: yes/no binding
# Method: as §3, §4, §5, §6, §7, §8, §9, §10, §11, §12, §13, §14, §15, §16, §17, §18, §19, §20
# [6] = tested on: Tlp2; assay type: cell-based, C. jejuni 11168-O; settings: nutrient-depleted chemotaxis assay
# Method: (§21) The biological relevance of the binding specificities of the Tlp2,3,4 cluster was assessed by examining chemotactic responses of C. jejuni 11168-O tlp2, tlp3, and tlp4 wild-type (WT) and mutant strains using a nutrient-depleted chemotaxis assay. All ligands, with the exception of lysine and cysteine, interacted with Tlp2 and Tlp4 as attractants (Table 1), showing an ~1- to ~2-log decrease (P < 0.05) in migration toward the ligand compared to the WT strain.
# (§22) Chemotaxis assays—the nutrient-depleted chemotaxis assay and the modified hard agar plug assay (tHAP)—were performed as previously described ([11], [34]). The chemotactic responses of all isogenic strains were compared to that of the C. jejuni 11168-O wild-type strain to distinguish between chemoattractants and chemorepellents. For the nutrient-depleted chemotaxis and modified hard agar plug (tHAP) assays, all differences were calculated as changes on a log10 scale. Controls were provided by using nonmotile (C. jejuni 81116 flaAB) and nonchemotactic (C. jejuni NCTC 11168 cheY) mutants ([69]) and mucin as negative and positive controls ([10]).
# [7] = tested on: Tlp3; assay type: cell-based, C. jejuni 11168-O
# Method: as §21, §22
# [8] = tested on: Tlp4; assay type: cell-based, C. jejuni 11168-O; settings: nutrient-depleted chemotaxis assay
# Method: as §21, §22
# [9] = molecular target: T4, Tlp3^LBD K149A (Campylobacter jejuni, UniProt Q0P864, K149A); settings: compared to WT Tlp3^LBD, P < 0.05
# [10] = molecular target: T5, Tlp3^LBD D169A (Campylobacter jejuni, UniProt Q0P864, D169A); settings: compared to WT Tlp3^LBD, P < 0.05
# [11] = molecular target: T3, Tlp3; test: biochemical; assay type: binding
# Method: as §1, with “The purity of the proteins was confirmed by SDS-PAGE and Western blot analysis with anti-His antibodies (Bio-Rad).” left out
# Surface plasmon resonance (SPR) experiments were performed as described previously ([10], [11]) with the following modifications. […] All ligands were prepared in PBS (pH 7.2) and serially diluted from 0.2 to 0.0125 mM. A 10-min dissociation period was allocated after the introduction of each analyte. SPR experiments were performed in single-cycle kinetics mode using the BIAcore S200 biosensor system (Cytiva) at 25°C in PBS (pH 7.2) at a flow rate of 30 μL/min. The equilibrium dissociation constant (KD) for each analyte was determined using BIAcore S200 Evaluation software with a report point 4 s after the injection stop to account for the bulk transfer of the small molecule against a large amount of immobilized protein (as shown in Fig. S5).
# [12] = molecular target: T6, Tlp3^LBD W151A (Campylobacter jejuni, UniProt Q0P864, W151A); settings: compared to WT Tlp3^LBD, P < 0.05
# [13] = molecular target: T4, Tlp3^LBD K149A; test: biochemical
# [14] = molecular target: T6, Tlp3^LBD W151A; test: biochemical
# [15] = molecular target: T5, Tlp3^LBD D169A; test: biochemical
# [16] = molecular target: Tlp3^LBD D170A (Campylobacter jejuni, UniProt Q0P864); test: biochemical
# [17] = molecular target: Tlp3^LBD D196A (Campylobacter jejuni, UniProt Q0P864, D196A); test: biochemical
# [18] = SPR KD, mean ± SD, NB = no binding
# T1 sequence (Q0PBZ3 entry or part of it): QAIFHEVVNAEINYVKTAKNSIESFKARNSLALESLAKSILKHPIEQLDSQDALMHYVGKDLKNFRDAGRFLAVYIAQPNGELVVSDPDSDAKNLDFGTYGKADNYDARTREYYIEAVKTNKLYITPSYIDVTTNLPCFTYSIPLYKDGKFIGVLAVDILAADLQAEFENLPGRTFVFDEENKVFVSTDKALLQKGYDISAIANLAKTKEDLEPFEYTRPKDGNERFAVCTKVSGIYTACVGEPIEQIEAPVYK
# T2 sequence (Q0PBP3 entry or part of it): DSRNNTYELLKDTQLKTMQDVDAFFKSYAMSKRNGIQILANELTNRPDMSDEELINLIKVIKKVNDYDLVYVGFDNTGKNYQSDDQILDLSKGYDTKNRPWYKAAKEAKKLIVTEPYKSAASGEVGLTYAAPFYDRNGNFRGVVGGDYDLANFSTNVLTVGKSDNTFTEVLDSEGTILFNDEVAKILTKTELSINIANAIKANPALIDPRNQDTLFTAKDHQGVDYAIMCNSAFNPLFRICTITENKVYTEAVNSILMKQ
# T4 sequence (Q0P864 41-290 K149A): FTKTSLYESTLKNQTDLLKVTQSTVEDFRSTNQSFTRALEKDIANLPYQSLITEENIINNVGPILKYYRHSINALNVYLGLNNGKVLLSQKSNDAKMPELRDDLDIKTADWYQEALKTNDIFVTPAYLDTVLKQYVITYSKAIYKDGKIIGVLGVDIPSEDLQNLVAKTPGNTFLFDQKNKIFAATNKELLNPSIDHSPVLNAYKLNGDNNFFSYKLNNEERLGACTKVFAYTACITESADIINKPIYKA
# T5 sequence (Q0P864 41-290 D169A): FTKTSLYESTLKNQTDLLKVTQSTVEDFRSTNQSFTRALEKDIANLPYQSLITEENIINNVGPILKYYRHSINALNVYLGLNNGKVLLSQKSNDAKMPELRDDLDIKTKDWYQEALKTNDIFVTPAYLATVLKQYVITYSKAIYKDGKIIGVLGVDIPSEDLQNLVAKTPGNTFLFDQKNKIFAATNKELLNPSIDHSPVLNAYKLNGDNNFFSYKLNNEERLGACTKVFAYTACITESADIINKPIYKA
# T6 sequence (Q0P864 41-290 W151A): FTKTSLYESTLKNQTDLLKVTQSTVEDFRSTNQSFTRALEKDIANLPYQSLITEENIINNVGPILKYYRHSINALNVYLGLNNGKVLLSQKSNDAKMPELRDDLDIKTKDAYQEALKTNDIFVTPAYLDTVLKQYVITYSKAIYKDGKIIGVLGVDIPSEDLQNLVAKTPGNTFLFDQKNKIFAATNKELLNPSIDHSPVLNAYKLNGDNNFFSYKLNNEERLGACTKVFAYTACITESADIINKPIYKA
# T3 sequence (Q0P864 entry or part of it): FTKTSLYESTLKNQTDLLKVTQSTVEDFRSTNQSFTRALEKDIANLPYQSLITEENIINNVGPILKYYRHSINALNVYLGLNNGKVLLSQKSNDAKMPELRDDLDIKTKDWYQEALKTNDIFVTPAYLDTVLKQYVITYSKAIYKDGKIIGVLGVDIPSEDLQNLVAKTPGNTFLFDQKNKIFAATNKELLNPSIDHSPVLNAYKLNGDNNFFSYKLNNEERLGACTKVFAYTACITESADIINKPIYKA
# Chain of Tlp3^LBD D196A (Q0P864 41-290 D196A): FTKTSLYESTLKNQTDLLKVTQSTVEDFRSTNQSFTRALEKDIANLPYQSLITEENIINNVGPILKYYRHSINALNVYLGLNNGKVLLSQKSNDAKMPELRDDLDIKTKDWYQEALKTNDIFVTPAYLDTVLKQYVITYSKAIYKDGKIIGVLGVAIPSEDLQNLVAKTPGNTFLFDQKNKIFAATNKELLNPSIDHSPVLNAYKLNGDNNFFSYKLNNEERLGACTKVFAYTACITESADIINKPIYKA
# Chain of Tlp3^LBD D170A (Q0P864 41-290 T170A): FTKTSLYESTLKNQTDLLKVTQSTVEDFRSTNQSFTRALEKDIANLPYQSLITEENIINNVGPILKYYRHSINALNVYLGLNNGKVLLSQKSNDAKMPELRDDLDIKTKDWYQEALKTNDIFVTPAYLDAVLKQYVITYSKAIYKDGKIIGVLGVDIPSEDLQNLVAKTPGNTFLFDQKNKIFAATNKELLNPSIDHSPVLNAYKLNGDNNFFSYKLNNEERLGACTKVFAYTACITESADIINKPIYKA
smiles,measurement,setting,value
OC[C@H]1OC(O)[C@@H](O)[C@@H](O)[C@@H]1O (stereo partly drawn) [Mannose],Kd,[1]; [18],12.9 ± 1.8 µM
same,Kd,[2]; [18],7.8 ± 1 µM
same,binding to Tlp2 on glycan/small molecule array,[3],interacted
same,binding to Tlp4 on glycan/small molecule array,[4],interacted
same,binding to Tlp3 on glycan/small molecule array,[5],interacted
same,chemotactic response via Tlp2,[6],attractants
same,Tlp3 CR (chemoresponse),[7]; chemotaxis of mutant compared to WT strain,R
same,chemotactic response via Tlp3,[7]; nutrient-depleted chemotaxis assay,repellents
same,chemotactic response via Tlp4,[8],attractants
same,"reduction in the affinity of Tlp3^LBD, substitution K149A",[9],2 fold
same,"reduction in the affinity of Tlp3^LBD, substitution D169A",[10],2 fold
Cc1ncc(C[n+]2csc(CCO)c2C)c(N)n1 [Thiamine],Kd,[1],> 200 µM
same,Kd,[2],> 200 µM
same,Kd,[11],41.4 ± 5.9 µM
same,Tlp3 CR (chemoresponse),[7],R
same,"reduction in the affinity/binding of Tlp3^LBD, substitution W151A",[12],1 fold
same,Kd,[13],53.8 ± 6.6 µM
same,Kd,[14],73.3 ± 4.4 µM
same,Kd,[15],62 ± 8.5 µM
same,Kd,[16],30.6 ± 7.2 µM
same,Kd,[17],36.8 ± 10 µM
